The test system of experiment [1] is ENR+CD organoids (ISC to Paneth cell differentiation). Nature of the experiment: Primary screen: basal (non-stimulated) lysozyme secretion LYZ.NS, 2.5-D 384-well ENR+CD organoid differentiation. It is filed as cell-based, mouse. The conditions noted are these: primary screen; for Z.LYZ.NS: standard z score. An excerpt: (§1) High-throughput screening.
For experiment [2] the test system is unchanged. Nature of the experiment: Primary screen: CCh-stimulated lysozyme secretion LYZ.S, 2.5-D 384-well ENR+CD organoid differentiation. It is filed as cell-based, mouse. The conditions noted are these: primary screen.
Source text: as §1

Experiment [3] deals with ENR+CD organoids. Nature of the experiment: Primary screen: ATP (CellTiter-Glo 3D, CTG) cell number/viability, 2.5-D 384-well ENR+CD organoids.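 As to all read-outs here: compounds given at plating and again on day 3 over a 6-day differentiation from ENR+CV stem-cell-enriched precursors, ATP measured on day 6, plate median as control.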 Conditions: primary screen; for Z.CTG: standard z score.
Where [4] appears, read: dose 0.08 uM, FC vs plate median.
The mark [5] stands for this setting: dose 0.40 uM, FC vs plate median.
[6] abbreviates: dose 2.00 uM, FC vs plate median.
[7] abbreviates: dose 10.00 uM, FC vs plate median.
[8] abbreviates: dose 0.08 uM, FC relative to plate median.
Where [9] appears, read: dose 0.40 uM, FC relative to plate median.
Setting [10] is: dose 2.00 uM, FC relative to plate median.
Where [11] appears, read: dose 10.00 uM, FC relative to plate median.

Consider `CC(C)(C)c1cc(/C=C(\C#N)C(N)=S)cc(C(C)(C)C)c1O` [Tyrphostin AG 879], for which the Dose.FC.LYZ.NS in experiment [1] (dose 0.08 uM) is on record as 0.010 log2 fold change; in experiment [1] (dose 0.40 uM), −0.078 log2 fold change; in experiment [1] (dose 2.00 uM) it was −0.080 log2 fold change; in experiment [1] (dose 10.00 uM), −0.110 log2 fold change. The “Z.LYZ.NS (standard z score)” value was 0.088 in experiment [1] (dose 0.08 uM), −0.680 in experiment [1] (dose 0.40 uM), −0.698 in experiment [1] (dose 2.00 uM) and −0.960 in experiment [1] (dose 10.00 uM). In addition, the Dose.FC.LYZ.S in experiment [2] (dose 0.08 uM) is recorded as −0.083 log2 fold change; in experiment [2] (dose 0.40 uM), −0.084 log2 fold change; in experiment [2] (dose 2.00 uM), −0.051 log2 fold change; in experiment [2] (dose 10.00 uM), −0.123 log2 fold change. For the same compound, the Dose.FC.CTG in experiment [3] (dose 0.08 uM) is −0.347 log2 fold change; in experiment [3] (dose 0.40 uM), −0.238 log2 fold change; in experiment [3] (dose 2.00 uM), −0.232 log2 fold change; in experiment [3] (dose 10.00 uM), −0.368 log2 fold change. Also, the “Z.CTG (standard z score)” value in experiment [3] (dose 0.08 uM) is −0.828; in experiment [3] (dose 0.40 uM) it was −0.569; in experiment [3] (dose 2.00 uM), −0.554; in experiment [3] (dose 10.00 uM), −0.879.
Take `OCCn1cc(-c2cnc3nnn(Cc4ccc5ncccc5c4)c3n2)cn1` [PF-04217903]: the Z.LYZ.NS in experiment [1] (dose 0.08 uM) stood at 0.742; in experiment [1] (dose 0.40 uM) it was 1.404; in experiment [1] (dose 2.00 uM), 1.060; in experiment [1] (dose 10.00 uM), 0.617. Moreover, the Dose.FC.LYZ.NS is reported as 0.085 log2 fold change in experiment [1] (setting [4]), 0.161 log2 fold change in experiment [1] (setting [5]), 0.122 log2 fold change in experiment [1] (setting [6]) and 0.071 log2 fold change in experiment [1] (setting [7]). Further, the Dose.FC.LYZ.S in experiment [2] (setting [4]) worked out at 0.110 log2 fold change; in experiment [2] (setting [5]) it was 0.265 log2 fold change; in experiment [2] (setting [6]), 0.049 log2 fold change; in experiment [2] (setting [7]) it was 0.127 log2 fold change. For the same compound, the Z.CTG in experiment [3] (dose 0.08 uM) is given as 0.326; in experiment [3] (dose 0.40 uM) it was 0.616; in experiment [3] (dose 2.00 uM), −0.122; in experiment [3] (dose 10.00 uM), 0.276. The Dose.FC.CTG in experiment [3] (setting [4]) is on record as 0.136 log2 fold change; in experiment [3] (setting [5]), 0.258 log2 fold change; in experiment [3] (setting [6]), −0.051 log2 fold change; in experiment [3] (setting [7]), 0.116 log2 fold change.
As to `Nc1ccc(C(=O)[O-])c(O)c1.[Na+]` [Sodium 4-Aminosalicylate], the Dose.FC.LYZ.NS in experiment [1] (setting [8]) was 0.080 log2 fold change; in experiment [1] (setting [9]), 0.041 log2 fold change; in experiment [1] (setting [10]) it was 0.156 log2 fold change; in experiment [1] (setting [11]), 0.091 log2 fold change. The Z.LYZ.NS in experiment [1] (dose 0.08 uM) was 0.695; in experiment [1] (dose 0.40 uM), 0.354; in experiment [1] (dose 2.00 uM), 1.354; in experiment [1] (dose 10.00 uM) it was 0.796. Also, the Dose.FC.LYZ.S was 0.162 log2 fold change in experiment [2] (setting [8]), 0.050 log2 fold change in experiment [2] (setting [9]), 0.099 log2 fold change in experiment [2] (setting [10]) and 0.143 log2 fold change in experiment [2] (setting [11]). Besides, the Dose.FC.CTG turned out to be 0.119 log2 fold change in experiment [3] (setting [8]), 0.204 log2 fold change in experiment [3] (setting [9]), 0.038 log2 fold change in experiment [3] (setting [10]) and 0.247 log2 fold change in experiment [3] (setting [11]).
On to `CCCCc1nc(Cl)c(CO)n1Cc1ccc(-c2ccccc2-c2nnn[n-]2)cc1.[K+]` [Losartan Potassium (DuP 753)], for which the “Dose.FC.LYZ.NS (log2 fold change)” value is given as 0.052 in experiment [1] (dose 0.08 uM), 0.038 in experiment [1] (dose 0.40 uM), −0.042 in experiment [1] (dose 2.00 uM) and 0.062 in experiment [1] (dose 10.00 uM). In addition, the “Z.LYZ.NS (standard z score)” value in experiment [1] (dose 0.08 uM) was 0.449; in experiment [1] (dose 0.40 uM), 0.329; in experiment [1] (dose 2.00 uM) it was −0.362; in experiment [1] (dose 10.00 uM), 0.540. The “Dose.FC.LYZ.S (log2 fold change)” value is −0.017 in experiment [2] (dose 0.08 uM), 0.027 in experiment [2] (dose 0.40 uM), −0.080 in experiment [2] (dose 2.00 uM) and −0.025 in experiment [2] (dose 10.00 uM). Besides, the “Dose.FC.CTG (log2 fold change)” value is −0.152 in experiment [3] (dose 0.08 uM), −0.175 in experiment [3] (dose 0.40 uM), −0.081 in experiment [3] (dose 2.00 uM) and −0.137 in experiment [3] (dose 10.00 uM). The “Z.CTG (standard z score)” value in experiment [3] (dose 0.08 uM) was −0.362; in experiment [3] (dose 0.40 uM) it was −0.418; in experiment [3] (dose 2.00 uM) it was −0.193; in experiment [3] (dose 10.00 uM) it was −0.328.

The record behind these values is patent US20220323406A1, “METHODS AND COMPOSITIONS FOR DIFFERENTIATING STEM CELLS” (Massachusetts Institute of Technology, priority 2019, published 2022).
